Experimental findings from patent US6962912B2, “Substituted pyrazolo[4,3-e]diazepines, pharmaceutical compositions containing them, use as medicinal products and processes for preparing them” (Warner-Lambert LLC, priority 2000, dated 2005) are described below.

The target in one data set is PDE4. Nature of the data set: Inhibition of PDE4 (cytosolic enzyme preparation from U937 line), compared with rolipram. Type of data set: biochemical, human. The settings on record: PDE4 enzyme preparation obtained from the U937 line.
Another data set concerns production of TNFα. Briefly: in vivo TNFα model in Wistar rats (LPS-induced). As to conditions: oral administration 30 min before i.p. LPS; plasma 90 min after LPS; male Wistar rats. The text has this:
TNFα is a cytokine which plays a central role in the mechanisms of inflammation. Its production can be induced by an injection of lipopolysaccharide (LPS). It has been shown that the increase in intracellular cAMP, produced in particular by PDE4 inhibitors, decreases the production of TNFα in in vitro and in vivo models. It is thus a matter here of quantifying in vivo the anti-inflammatory potential of the compounds of the invention, administered orally (p.o.) by measuring the inhibition of the production of TNFα in the plasma of rats, these rats having received an intraperitoneal (i.p.) injection of lipopolysaccharide (LPS). The treatment with the compounds of the invention or the vehicle are [sic] administered orally to male Wistar rats, 30 min before the injection of LPS. The rats are sacrificed 90 min after the stimulation with LPS, the blood is collected onto EDTA and the TNFα concentration is measured in each plasma sample. […] References • Chen, Y. L., Le Vraux, V., Giroud, J. P. and Chauvelot-Moachon L. (1994). Anti-tumor necrosis factor properties of non-peptide drugs in acute-phase responses. […] Int. J. Immunopharmacol., 16 (10), 805-816. Model of Eosinophilia in Rats

In general, IC50 refers to the concentration that gives 50% inhibition. For orientation: melting point means the temperature, or range, at which the solid turns liquid.

The molecule `CCC(C)c1nn(CC)c2c1N=C(c1ccccc1)CNC2=O` (racemic) [Example 68, (±)3-sec-Butyl-1-ethyl-5-phenyl-6,7-dihydro-1H-pyrazolo[4,3-e][1,4]diazepin-8-one] had an IC50 against PDE4 of 6.2 nM. Moreover, the “inhibition of the production of TNFα in the plasma of rats” value (“inhibition of the production of TNFα” below) in the data set on production of TNFα is given as “excellent activity”.
With `CCC(C)c1nn(CC)c2c1N=C(c1ccncc1)CNC2=O` (racemic) [Example 69, (±)3-sec-Butyl-1-ethyl-5-pyrid-4-yl-6,7-dihydro-1H-pyrazolo[4,3-e][1,4]diazepin-8-one], the melting point was in the range of 86 to 88.5 °C. This molecule returned an IC50 against PDE4 of 13 nM. In the data set on production of TNFα, the “inhibition of the production of TNFα” value is “excellent activity”.
Turning to `CCn1nc(C)c2c1C(=O)NCC(C(C)(C)C)N2` (stereo not shown) [5-tert-Butyl-1-ethyl-3-methyl-4,5,6,7-tetrahydro-1H-pyrazolo[4,3-e][1,4]diazepin-8-one], in the data set with production of TNFα, the “inhibition of the production of TNFα” value was “excellent activity”.
On PDE4, `CCn1nc(C(C)C)c2c1C(=O)NCC(C(C)(C)C)=N2` [Example 35, 5-tert-Butyl-1-ethyl-3-isopropyl-6,7-dihydro-1H-pyrazolo[4,3-e][1,4]diazepin-8-one] registered an IC50 of 0.7 nM. The “inhibition of the production of TNFα” value in the data set on production of TNFα is reported as “excellent activity”.
As for `CCn1nc(C(C)C)c2c1C(=O)NCC(c1ccc(C)cc1)=N2` [Example 36, 1-Ethyl-3-isopropyl-5-p-tolyl-6,7-dihydro-1H-pyrazolo[4,3-e][1,4]diazepin-8-one], the midpoint of inhibition against PDE4, the IC50, lay at 0.39 nM. Besides, in the data set on production of TNFα, the “inhibition of the production of TNFα” value is reported as “excellent activity”.
On to `CCn1nc(C(C)C)c2c1C(=O)NCC(c1ccc(C#N)cc1)=N2` [Example 37, 4-(1-Ethyl-3-isopropyl-8-oxo-1,6,7,8-tetrahydro-pyrazolo[4,3-e][1,4]diazepin-5-yl)benzonitrile], for which, on PDE4, the IC50 stood at 0.97 nM. Besides, the “inhibition of the production of TNFα” value with production of TNFα is “excellent activity”.
`CCn1nc(C(C)C)c2c1C(=O)NCC(c1ccc(OC)cc1OC)=N2` [Example 39, 5-(2,4-Dimethoxyphenyl)-1-ethyl-3-isopropyl-6,7-dihydro-1H-pyrazolo[4,3-e][1,4]diazepin-8-one] had an IC50 against PDE4 of 9.1 nM. For the same molecule, the “inhibition of the production of TNFα” value in the data set with production of TNFα is “excellent activity”.
`CCCn1nc(C(C)C)c2c1C(=O)NCC(C(C)(C)C)=N2` [Example 40, 5-tert-Butyl-3-isopropyl-1-propyl-6,7-dihydro-1H-pyrazolo[4,3-e][1,4]diazepin-8-one]: inhibition at PDE4 was half-maximal at 8.2 nM (IC50). For the same molecule, the “inhibition of the production of TNFα” value in the data set on production of TNFα is “excellent activity”.
On the same counts, the results for `CCCn1nc(C(C)C)c2c1C(=O)NCC(c1ccc(C)cc1)=N2` [Example 41, 3-Isopropyl-1-propyl-5-p-tolyl-6,7-dihydro-1H-pyrazolo[4,3-e][1,4]diazepin-8-one] are 11 nM and “excellent activity”.
On the same counts, the results for `CCCn1nc(C(C)C)c2c1C(=O)NCC(c1ccc(C#N)cc1)=N2` [Example 42, 4-(3-Isopropyl-8-oxo-1-propyl-1,6,7,8-tetrahydro-pyrazolo[4,3-e][1,4]diazepin-5-yl)benzonitrile] are 10 nM and “excellent activity”.
Consider `CCn1nc(C(C)(C)C)c2c1C(=O)NCC(c1ccc(C)cc1)=N2` [Example 45, 3-tert-Butyl-1-ethyl-5-p-tolyl-6,7-dihydro-1H-pyrazolo[4,3-e][1,4]diazepin-8-one], for which the IC50 on PDE4 worked out at 2.6 nM. Moreover, the “inhibition of the production of TNFα” value in the data set with production of TNFα is recorded as “excellent activity”.
On the same counts, the results for `CCn1nc(C(C)(C)C)c2c1C(=O)NCC(c1ccc(C#N)cc1)=N2` [Example 46, 4-(3-tert-Butyl-1-ethyl-8-oxo-1,6,7,8-tetrahydro-pyrazolo[4,3-e][1,4]diazepin-5-yl)benzonitrile] are 0.84 nM and “excellent activity”.
As for `CCCn1nc(C2CCCCC2)c2c1C(=O)NCC(c1ccncc1)=N2` [Example 75, 3-Cyclohexyl-1-propyl-5-pyrid-4-yl-6,7-dihydro-1H-pyrazolo-[4,3-e][1,4]diazepin-8-one], on PDE4, the IC50 is 4.9 nM. In addition, the “inhibition of the production of TNFα” value in the data set on production of TNFα is “excellent activity”.
`CCCn1nc(C(C)C)c2c1C(=O)NCC(c1ccc(OC)cc1)=N2` [Example 85, 3-Isopropyl-5-(4-methoxyphenyl)-1-propyl-6,7-dihydro-1H-pyrazolo[4,3-e][1,4]diazepin-8-one] registered a melting point of 142 °C. This molecule also gave an IC50 against PDE4 of 200 nM.
On the same counts, the results for `CCn1nc(C(C)(C)C)c2c1C(=O)NCC(c1ccc(OC)cc1)=N2` [Example 86, 3-tert-Butyl-1-ethyl-5-(4-methoxyphenyl)-6,7-dihydro-1H-pyrazolo[4,3-e][1,4]diazepin-8-one] are 180 °C and 310 nM.
On the same counts, the results for `CCCn1nc(C(C)(C)C)c2c1C(=O)NCC(c1ccc(OC)cc1)=N2` [Example 87, 3-tert-Butyl-5-(4-methoxyphenyl)-1-propyl-6,7-dihydro-1H-pyrazolo[4,3-e][1,4]diazepin-8-one] are 167 °C and 41 nM.
On the same counts, the results for `CCn1nc(C)c2c1C(=NC#N)NCC(c1ccc(O)cc1)=N2` [Example 88, 1-Ethyl-3-methyl-5-(4-hydroxyphenyl)-6,7-dihydro-1H-pyrazolo[4,3-e][1,4]diazepin-8-ylidenecyanamide] are 300 °C and 2.1 nM.
As to `CCn1nc(C)c2c1C(=O)NCC(c1cc(OC)c(OC)c(OC)c1)=N2` [Example 91, 1-Ethyl-3-methyl-5-(3,4,5-trimethoxyphenyl)-6,7-dihydro-1H-pyrazolo[4,3-e][1,4]diazepin-8-one], the melting point worked out at 208 °C. In addition, 900 nM corresponded to half-maximal inhibition at PDE4 (IC50).
On the same counts, the results for `CCn1nc(C)c2c1C(=O)NCC(c1cccc(O)c1)=N2` [Example 92, 1-Ethyl-5-(3-hydroxyphenyl)-3-methyl-6,7-dihydro-1H-pyrazolo[4,3-e][1,4]diazepin-8-one] are 204 °C and 92 nM.
On the same counts, the results for `CCn1nc(C)c2c1C(=O)NCC(c1ccccc1O)=N2` [Example 93, 1-Ethyl-5-(2-hydroxyphenyl)-3-methyl-6,7-dihydro-1H-pyrazolo[4,3-e][1,4]diazepin-8-one] are 220 °C and 7.4 nM.
On the same counts, the results for `CCn1nc(C(C)C)c2c1C(=O)NCC(c1ccc(O)cc1)=N2` [Example 94, 1-Ethyl-5-(4-hydroxyphenyl)-3-isopropyl-6,7-dihydro-1H-pyrazolo[4,3-e][1,4]diazepin-8-one] are 230 °C and 2.1 nM.
Take `CCCn1nc(C(C)C)c2c1C(=O)NCC(c1ccc(O)cc1)=N2` [Example 95, 5-(4-Hydroxyphenyl)-3-isopropyl-1-propyl-6,7-dihydro-1H-pyrazolo[4,3-e][1,4]diazepin-8-one]: the melting point was 230 °C. For the same molecule, the IC50 on PDE4 stood at 15 nM.
On the same counts, the results for `CCn1nc(C(C)(C)C)c2c1C(=O)NCC(c1ccc(O)cc1)=N2` [Example 96, 3-tert-Butyl-1-ethyl-5-(4-hydroxyphenyl)-6,7-dihydro-1H-pyrazolo[4,3-e][1,4]diazepin-8-one] are 264 °C and 4.9 nM.
